Source: patent US20160129089A1, “COMBINATION THERAPY” (ANTISENSE THERAPEUTICS LTD, priority 2013, published 2016)
e = 2'-O-(2-methoxyethyl) (MOE); d = 2'-deoxy (DNA)

Tests used:
[1] = tested on: human growth hormone receptor mRNA; assay: Inhibition of human growth hormone receptor mRNA levels by antisense oligonucleotides, quantitative real-time PCR, MCF7 cells; assay type: cell-based; parameters: concentration or dose not given beside the values; conditions: averages from three experiments
Protocol: “Target site” indicates the first (5′-most) nucleotide number on the particular target sequence to which the oligonucleotide binds. “% Inhib” indicates the inhibitory effect on hGHR mRNA levels by quantitative real-time PCR. Data are averages from three experiments in which MCF7 cells were treated with the antisense oligonucleotides.
All oligonucelotides in Table 1 are chimeric oligonucleotides (“gapmers”), 20 nucleotides in length, composed of a central “gap” region consisting of ten 2′-deoxynucleotides, which is flanked on both sides (5′ and 3′ directions) by five-nucleotide “wings”. The wings are composed of 2′-methoxyethyl (2′-MOE) nucleotides. The internucleoside (backbone) linkages are phosphorothioate (P═S) throughout the oligonucleotide. All uracils are 5-methyluracils (^MeU). Typically, the oligonucleotide is synthesized using 2-methoxyethyl modified thymidines not 5-methyluracils. All pyrimidines are C5 methylated (i.e., U, T, C are C5 methylated).

liver GHr RNA = assay: Monotherapy and combination mouse study: relative liver GHR RNA; assay type: in vivo, mice; conditions: compared to saline control; for reduction of liver GHr RNA: week 3
Description: (§1) The GHr and IGF-I RNA data were statistically analysed using one-way ANOVA followed by Dunnetts test when comparing treated to saline control. The sIGF-I data were statistically analyzed using one-way […] comparisons.

liver IGF-I RNA = assay: Monotherapy and combination mouse study: relative liver IGF-I RNA; assay type: in vivo, mice; conditions: compared to saline control; for reduction of liver IGF-I RNA: week 3, p=0.05
Description: as §1

serum IGF-I = assay: Monotherapy and combination mouse study: serum IGF-I; assay type: in vivo, mice; conditions: for reduction of sIGF-I: week 1
Description: as §1

Compound: 272357 (antisense TAGGGTCCATCTTTCAAGAC; sugars from the 5' end e5 d10 e5, all phosphorothioate, methylation of C not given here) [compound 272357]
- % INHIB (inhibitory effect on hGHR mRNA levels) [1]: 62%

Compound: 272358 (antisense TCTCCAGATAGAATCTAAAC; sugars from the 5' end e5 d10 e5, all phosphorothioate, methylation of C not given here) [compound 272358]
- % INHIB (inhibitory effect on hGHR mRNA levels) [1]: 53%

Compound: 272359 (antisense TCCAAATATTCTGGTACTTT; sugars from the 5' end e5 d10 e5, all phosphorothioate, methylation of C not given here) [compound 272359]
- % INHIB (inhibitory effect on hGHR mRNA levels) [1]: 72%

Compound: 272360 (antisense TATTAGTTACCTTGAGGAGA; sugars from the 5' end e5 d10 e5, all phosphorothioate, methylation of C not given here) [compound 272360]
- % INHIB (inhibitory effect on hGHR mRNA levels) [1]: 0%

Compound: 272361 (antisense ATTTTCCTTCCTAGAAAATA; sugars from the 5' end e5 d10 e5, all phosphorothioate, methylation of C not given here) [compound 272361]
- % INHIB (inhibitory effect on hGHR mRNA levels) [1]: 10%

Compound: C[C@@H](O)[C@@H]1NC(=O)[C@H](CCCCN)NC(=O)[C@@H](Cc2c[nH]c3ccccc23)NC(=O)[C@H](Cc2ccccc2)NC(=O)[C@@H](NC(=O)[C@H](N)Cc2ccccc2)CSSC[C@@H](C(=O)N[C@H](CO)[C@@H](C)O)NC1=O [Octreotide, reference compound]
- reduction of liver GHr RNA (liver GHr RNA; octreotide 1.25 mg/kg twice daily, p=0.001): 82.9%
- reduction of liver IGF-I RNA (liver IGF-I RNA; octreotide 1.25 mg/kg twice daily): 47.7%
- reduction of sIGF-I (serum IGF-I; octreotide 1.25 mg/kg twice daily, compared to baseline control levels, p<0.04): 15%
- reduction of sIGF-I (serum IGF-I; octreotide 1.25 mg/kg twice daily, p=0.012): 25.1%
- reduction of serum IGF-I (serum IGF-I; octreotide 1.25 mg/kg twice daily, week 3, compared to saline control, p=0.03): 25.2%

Compound: Somavert: current medicinal treatment for acromegaly, used as monotherapy or with a Somatostatin agonist
- reduction of liver GHr RNA (liver GHr RNA; Somavert 20 mg/kg, every other day, p=0.01): 79.9%
- increase of liver GHr RNA (liver GHr RNA; Somavert lower dose 5 mg/kg, every other day, p=0.05): 23%
- reduction of liver IGF-I RNA (liver IGF-I RNA; Somavert 20 mg/kg, every other day): 43.2%
- effect on liver IGF-I RNA (liver IGF-I RNA; Somavert lower dose 5 mg/kg, every other day): no effect
- increase of sIGF-I levels (serum IGF-I; higher Somavert dose, 1 week, patent suspects an issue with the assay): > 2 fold
